The values that follow come from US20080269163A1, “Methods and Compositions for Protecting Cells from Ultrasound-Mediated Cytolysis” (priority 2004, published 2008).

SMILES strings stand for the structures. Entries after “also recorded” stand apart in the source; their conditions may differ.

Data set [1] has as its system HL-60 cells. In words: Ultrasound-induced cytolysis of HL-60 cells, Coulter counter analysis. It counts as cell-based. To be noted: for concentration giving complete (approximately 100%) protection from ultrasound induced cytolysis / effect on ultrasound induced cytolysis (% cytolysis): 1.057 MHz (1 MHz), 10 W; for concentration giving complete (approximately 100%) protection from ultrasound induced cytolysis / effect on ultrasound induced cytolysis (% cytolysis) / effect on ultrasound induced cytolysis: 5 s; for concentration giving complete (approximately 100%) protection from ultrasound induced cytolysis: air exposed; for cells protected from immediate cytolysis: 7 mM HGP; for change of protection from cytolysis as frequency is decreased: frequency decreased from 1 MHz to 42 kHz. The procedure: Cells: HL-60 myeloid leukemia cells (American Type Culture Collection) were grown in a suspension of RPMI 1640 medium (GIBCO, Gaithersburg, Md.) containing 10% calf serum. The population of HL-60 cells doubled every 23±1 hr (hour ±SEM) when incubated at 37° C. in a CO2 (5%) containing atmosphere. Cells were harvested, re-suspended in fresh RPMI medium and kept at 25° C. until the start of the experiment (typically less than 1 hr). […] The fraction of intact cells before and after ultrasound was determined using a Coulter multisizer (model IIe) connected to a sampling stand (model IIa). The number of intact cells was determined by counting the total number of particles under the bell shaped curve (e.g., FIG. 1a) before and following sonolysis. The cytolysis percentage was determined by subtracting the number of intact cells following sonolysis from the number of intact cells before sonolysis. This value was divided by the number of intact cells before sonolysis and multiplied by 100 to obtain the cytolysis percentage value.
The temperature of the coupling water was 25° C.
We have confirmed the validity of this technique for studying the effects of sonolysis in our ultrasound system by the trypan blue exclusion assay. The mean size of HL-60 cells was determined from the Coulter counter results prior to sonolysis and was approximately 650 μm3 (FIG. 1a) which equates to a mean cell diameter of […].
42 kHz sonolysis was conducted in a similar way but using a Branson ultrasound bath (model number 1510). […] At 42 kHz, a transducer was used to decrease the power of the bath to 50% of its original value. The temperature of the coupling water at all frequencies was 25° C.
The percentage of cytolysis of HL-60 cells was determined by measurement of the cell size distribution using a Coulter multisizer. This method correlates well with percentage cytolysis measured using the Trypan blue exclusion assay immediately following sonolysis and is explained in detail elsewhere (Miyoshi, N. et al. 2003). […] This immediate ultrasound induced cytolysis (i.e., % cytolysis) is represented in FIGS. 2, 10-12 at a concentration of zero.
42 kHz sonolysis was conducted in a similar way but using a Branson ultrasound bath (model number […]). […] At 42 kHz, a transducer was used to decrease the power of the bath to 50% of its original value. The temperature of the coupling water at all frequencies was 25° C.
The percentage of cytolysis of HL-60 cells was determined by measurement of the cell size distribution using a Coulter multisizer. This method correlates well with percentage cytolysis measured using the Trypan blue exclusion assay immediately following sonolysis and is explained in detail elsewhere (Miyoshi, N. et al. 2003). […] This immediate ultrasound induced cytolysis (i.e., % cytolysis) is represented at a concentration of zero.

In data set [2] the test system is HL-60 cells.
Description: (§1) Cell experiments were completed within 5 to 10 minutes of adding the glucopyranosides to the cell suspensions, and each data point represents an average ±SEM, where n=5 to 8. […] For this reason, we only studied the effects of MGP, HGP, HepGP and OGP on the ultrasound induced cytolysis of HL-60 cells.
The subject of data set [3] is HL-60 cells. Kind of data set: Reproduction assay of HL-60 cells following sonolysis. It counts as cell-based. To be noted: for reproduction ratio one or two days post treatment: 7 mM HGP; for reproductive viability (reproduction fraction) over 24 hours after sonolysis: 5 seconds, 10 W, varying concentrations. The procedure:
Cells were allowed to reproduce for 24 hours. Reproduction fraction ±SD (where n=6 to 8) is calculated by dividing the number of cells counted following 24 hours of reproduction by the number of cells counted at the start of incubation.
Control data points were run in triplicate with a standard deviation of less than 10%. Sonolysis points represent an average of six separate cell suspensions, with a standard deviation of less than 10%.
The reproduction ratio is the number of cells present one or two days post treatment divided by the number of cells present on the treatment day.
Reproduction Assay: for FIG. 5, a reproduction assay was conducted over a period of 10 days to determine the long term viability of cells following ultrasound treatment in the presence of either HGP or OGP at concentrations where 100% protection from cytolysis occurred. The long term viability of treated cell suspensions was compared to the long term viability of untreated control cell suspensions held under exactly the same conditions (FIG. 5). Immediately following sonolysis, a 100 μl aliquot of the 1 ml treated (or control) samples was used for Coulter counter analysis in order to confirm that 100% of the cells had survived the ultrasound treatment. Viability of the cells was determined by using a very small volume (approx. 20 μl) of suspension for trypan blue staining. The remaining ≈0.9 ml cell suspensions were diluted to 3 ml with fresh medium, centrifuged, washed with fresh medium, and finally re-suspended in fresh medium (2 ml). 100 μl of this new 2 ml of cells suspended in fresh medium was then used to determine the cell concentration. This cell concentration is defined as ‘the cell concentration at Day 0 after ultrasound treatment’ (Ci). Cell suspensions were then kept at 37° C. in a 5% CO2 incubator for a total of 10 days.
Over the 10 day period, cells had to be spun down occasionally and re-suspended in fresh medium to replenish the nutrients necessary for a healthy cell population. 100 μl aliquots of the original cell suspension were used to measure the cell concentration both before (Cfinal) and following (Cinitial) re-suspension in fresh medium. This procedure, although necessary, results in a slight underestimation in the expected number of cells on any given day, when compared to the original cell concentration, Ci. To account for this small, but significant underestimation, we calculated the actual number of cells that would have been observed had we not been periodically extracting small aliquots for the detection of cell numbers by the Coulter counter. This was done by calculating a ‘reproduction ratio’, determined by dividing Cfinal by Cinitial that was measured one or two days earlier and comparing this ratio to (Ci), to give a ‘real cell population’. It should be noted that this calculation is done simply as a matter of convenience and that the reproduction ability of the treated samples was compared to control samples that were treated in the same way over the day period, as shown in FIG. 5. Verification of this method is given by the fact that the cells of the control samples double approximately every day (FIG. 5), as expected for HL-60 cells under the conditions of incubation in the current study.

Data set [4] has as its system HL-60 cells. Kind of data set: Exposure of HL-60 cells to glucopyranosides alone (no ultrasound). The conditions noted are these: 15 minute exposure at highest concentrations used.
Description: as §1
Data set [5] deals with HL-60 cells. Kind of data set: Mechanical fragility test (Burrell wrist action shaker, glass beads), HL-60 cells. The data set is classed as cell-based. The conditions noted are these: for protection from mechanical induced cytolysis: 30 min shaking, 50% power, HGP 1-10 mM, HepGP 0.1-10 mM, MGP 10-30 mM, OGP 0.3-3 mM. The method, then:
10 ml borosilicate glass beads in a 125 ml conical flask. 10 ml cell suspension in the presence and absence (control) of various glucopyranosides (HGP, HepGP, MGP, and OGP) in a cell culture medium containing 10% DPBS solution. Shaking was conducted over a period of 30 minutes. Each data point represents ±SD, where n=5.
Mechanical Fragility Test: the effect of glucopyranosides on the mechanical fragility of the cells was determined by inducing mechanical shear stress to a cell suspension. This involved placing 10 mL of HL-60 cells in suspension in 125 ml sized screw capped conical flasks containing 10 mL of borosilicate solid-glass beads (Sigma-Aldrich, mean particle diameter of 3 mm), similar to the methods described elsewhere (Carstensen, E. L. et al. 1993; Miller, M. W. et al. 2003). The samples were then shaken in a Burrell wrist action shaker (model number 75, Burrell Scientific, Pittsburgh, Pa.) at 50% power for a duration of 30 minutes. Using this method, up to eight sample solutions could be run at one time. […] In samples containing glucopyranosides, the surfactant was dissolved in 1 ml of DPBS and added to 9 ml of the cell suspension.

A further data set deals with HL-525 cells. In words: Sonolysis of HL-525 cells, % cytolysis. The data set is classed as cell-based. The conditions noted are these: 1 MHz (1057 kHz), 10 W, 5 sec. The method, then: Conditions: 42 kHz, 50% power, 5 sec, 20° C., % cytolysis ±SD (n=6).
Conditions: 354 kHz, 15 W, 5 sec, 20° C., % cytolysis ±SD (n=6).
Conditions: 614 kHz, 20 W, 5 sec, 20° C., % cytolysis ±SD (n=6).
Conditions: 1057 kHz, 10 W, 5 sec, 20° C., % cytolysis ±SD (n=6).

As to `CCCCCCCNC(=O)OC[C@H]1O[C@H](OC)[C@H](O)[C@@H](O)[C@@H]1O` [ANAMEG-7, methyl-6-O—(N-heptylcarbamoyl)-α-D-glucopyranoside], the “concentration giving complete (approximately 100%) protection from ultrasound induced cytolysis” value in the data set on HL-60 cells [1] (HL-60 cells) was 3 mM.

For the compound `OC[C@H]1O[C@@H](OCCCC2CCCCC2)[C@H](O)[C@@H](O)[C@@H]1O` [Cyglu-3, 3-cyclohexyl-1-propyl-β-D-glucoside], the “concentration giving complete (approximately 100%) protection from ultrasound induced cytolysis” value in the data set on HL-60 cells [1] (HL-60 cells) is 5 mM.

Consider `CCCCCCCCCCO[C@@H]1O[C@H](CO)[C@@H](O)[C@H](O)[C@H]1O` [DGP, decyl-β-D-Glucopyranoside], for which the “lysis of cells on exposure (Coulter counter, trypan blue)” value in the data set with HL-60 cells [2] is recorded as “immediate lysis of a large population of cells”.

On to `CCCCCCO[C@@H]1O[C@H](CO)[C@@H](O)[C@H](O)[C@H]1O` [HGP, hexyl-β-D-Glucopyranoside], for which the “cells protected from immediate cytolysis” value in the data set with HL-60 cells [1] (354 kHz) and in the data set with HL-60 cells [1] (614 kHz) was 100% throughout. Further, the ultrasound induced cytolysis entry with HL-60 cells [1] (HGP 5 mM, 1.057 MHz, 15 seconds, 30 W) was “eliminated”. Also, in the data set with HL-60 cells [1] (HGP 5 mM, 1.057 MHz, extreme conditions with almost 100% cytolysis without HGP), the “protection from sonolysis under a range of ultrasound intensities and exposure times” value is “could protect cells from cytolysis even during extreme conditions of sonolysis”. The “effect on ultrasound induced cytolysis (% cytolysis)” value (from here on “effect … (% cytolysis)”) in the data set with HL-60 cells [1] (HL-60 cells) is “fully protects”. Further, the “effect on ultrasound induced cytolysis” value in the data set on HL-60 cells [1] (HL-60 cells, 42 kHz, 50% power) was “very small sonosensitization; also recorded: not at 42 kHz”; in the data set with HL-60 cells [1] (HL-60 cells, 354 kHz, 15 W), “fully protects”; in the data set on HL-60 cells [1] (HL-60 cells, 614 kHz, 20 W), “fully protects”. Moreover, the “change of protection from cytolysis as frequency is decreased” value in the data set on HL-60 cells [1] (HL-60 cells) was “less effective”. Further, the “reproduction ratio one or two days post treatment” value with HL-60 cells [3] (354 kHz) and in the data set on HL-60 cells [3] (614 kHz) was “continue to reproduce at the same rate” each time. Also, in the data set on HL-60 cells [3] (HGP 5 mM, 1.057 MHz, 15 seconds, 40 W and 60 W), the “reproduction of treated cells over 10 days” value was “continue to reproduce at a rate comparable to that of untreated control cells”. Moreover, in the data set with HL-60 cells [3], the “reproductive viability (reproduction fraction) over 24 hours after sonolysis” value is “continue to reproduce at the same rate as untreated control samples”. In the data set on HL-60 cells [4], the “effect on reproduction rate of the cells over 120 hours” value (“effect … over 120 hours” below) is on record as “no detrimental effect”. For the same compound, in the data set with HL-60 cells [5], the “protection from mechanical induced cytolysis” value was “none of the glucopyranosides tested”.

`CCCCCCO[C@@H]1O[C@H](CO)[C@@H](O[C@H]2O[C@H](CO)[C@@H](O)[C@H](O)[C@H]2O)[C@H](O)[C@H]1O` [HMP, Hexyl-β-D maltopyranoside]: the “concentration giving complete (approximately 100%) protection from ultrasound induced cytolysis” value in the data set on HL-60 cells [1] (HL-60 cells) is 1 mM.

As for `CCCCCCCO[C@@H]1O[C@H](CO)[C@@H](O)[C@H](O)[C@H]1O` [HepGP, heptyl-β-D-Glucopyranoside], in the data set on HL-60 cells [1] (HL-60 cells), the “effect … (% cytolysis)” value is on record as “fully protects”, the “concentration giving complete (approximately 100%) protection from ultrasound induced cytolysis” value amounted to 3 mM and the “change of protection from cytolysis as frequency is decreased” value is given as “less effective”. Also, in the data set on HL-60 cells [1] (HL-60 cells, 42 kHz, 50% power), the “effect on ultrasound induced cytolysis” value is recorded as “very small sonosensitization”. Besides, the “effect on ultrasound induced cytolysis” value in the data set on HL-60 cells [1] (HL-60 cells, 614 kHz, 20 W) is “fully protects”. For the same compound, the “reproductive viability (reproduction fraction) over 24 hours after sonolysis” value with HL-60 cells [3] was “continue to reproduce at the same rate as untreated control samples”. For the same compound, the “effect … over 120 hours” value in the data set on HL-60 cells [4] is on record as “no detrimental effect”. In the data set with HL-60 cells [5], the “protection from mechanical induced cytolysis” value is listed as “none of the glucopyranosides tested”. Besides, the “effect on cell membrane stability to mechanical shear stress” value with HL-60 cells [5] (relatively high concentrations) is reported as “significant destabilization of the cell membrane to mechanical shear stress”.

Regarding `CO[C@@H]1O[C@H](CO)[C@@H](O)[C@H](O)[C@H]1O` [MGP, Methyl-β-D-Glucopyranoside, reference compound], the “effect … (% cytolysis)” value in the data set on HL-60 cells [1] (HL-60 cells) is on record as “no effect”. For the same compound, the “effect on ultrasound induced cytolysis at any ultrasound frequency” value with HL-60 cells [1] (HL-60 cells, 42 kHz to 1 MHz, MGP 10 to 30 mM) is on record as “effectively has no effect”. The “protective effect for HL-525 cells compared to HL-60 cells” value with HL-525 cells was “different protection effects”. For the same compound, the “effect … over 120 hours” value in the data set on HL-60 cells [4] is given as “no detrimental effect”. Besides, the “protection from mechanical induced cytolysis” value in the data set with HL-60 cells [5] is on record as “none of the glucopyranosides tested”.

With `CCCCCCCCO[C@H]1O[C@H](CO)[C@@H](O)[C@H](O)[C@H]1O` [alphaOGP, n-octyl-α-D-glucopyranoside], in the data set with HL-60 cells [1] (HL-60 cells), the “effect … (% cytolysis)” value was “very slight protective effect”.
